Assay results published in patent US20230150953A1, “SUBSTITUTED ISOPHTHALIC ACID DIAMIDES” (Bayer Aktiengesellschaft, priority 2020, published 2023).

Key:
Assay type in all cases: in vivo
[1] = tested on: ABUTH Abutilon theophrasti; assay: Pre-emergence herbicidal action against harmful plants; conditions: scored visually after 3 weeks vs untreated controls
From the text: (§1) The abbreviations used for the harmful plants mean: • ABUTH Abutilon theophrasti ALOMY Alopecurus myosuroides • AVEFA Avena fatua AMARE Amaranthus retroflexus • CYPES Cyperus esculentus DIGSA Digitaria sanguinalis • ECHCG Echinochloa crus-galli HORMU Hordeum murinum • LOLMU Lolium multiflorum LOLRI Lolium rigidum • MATIN Matricaria inodora PHBPU Pharbitis purpurea • POLCO Polygonum convolvulus SETVI Setaria viridis • STEME Stellaria media VERPE Veronica persica • VIOTR Viola tricolor 1. Pre-Emergence Herbicidal Action Against Harmful Plants Seeds of monocotyledonous and dicotyledonous weed plants and crop plants are laid out in sandy loam soil in wood-fiber pots and covered with soil. The compounds of the invention, formulated in the form of wettable powders (WP) or as emulsion concentrates (EC), are then applied to the surface of the covering soil in the form of an aqueous suspension or emulsion at a water application rate equivalent to 600 to 800 l/ha, with addition of 0.2% wetting agent. After the treatment, the pots are placed in a greenhouse and kept under good growth conditions for the trial plants. The damage to the test plants is scored visually after a test period of 3 weeks by comparison with untreated controls (herbicidal activity in percent (%): 100% activity=the plants have died, 0% activity=like control plants). […] The tables below illustrate, in an illustrative manner, the post-emergence herbicidal action of the compounds of the invention, the herbicidal activity being stated in percent.

[2] = tested on: ALOMY Alopecurus myosuroides; assay: as above; conditions: 80 g/ha, scored visually after 3 weeks vs untreated controls
From the text: as §1

[3] = tested on: AMARE Amaranthus retroflexus; assay: as above; conditions: scored visually after 3 weeks vs untreated controls
From the text: as §1

[4] = tested on: DIGSA Digitaria sanguinalis; assay: as above; conditions: scored visually after 3 weeks vs untreated controls
From the text: as §1

[5] = tested on: MATIN Matricaria inodora; assay: as above; conditions: scored visually after 3 weeks vs untreated controls
From the text: as §1

[6] = tested on: PHBPU Pharbitis purpurea; assay: as above; conditions: scored visually after 3 weeks vs untreated controls
From the text: as §1

[7] = tested on: SETVI Setaria viridis; assay: as above; conditions: scored visually after 3 weeks vs untreated controls
From the text: as §1

[8] = tested on: AMARE Amaranthus retroflexus; assay: Post-emergence herbicidal action against harmful plants; conditions: one-leaf stage, assessed visually after about 3 weeks vs untreated controls
From the text: (§2) The abbreviations used for the harmful plants mean: • ABUTH Abutilon theophrasti ALOMY Alopecurus myosuroides • AVEFA Avena fatua AMARE Amaranthus retroflexus • CYPES Cyperus esculentus DIGSA Digitaria sanguinalis • ECHCG Echinochloa crus-galli HORMU Hordeum murinum • LOLMU Lolium multiflorum LOLRI Lolium rigidum • MATIN Matricaria inodora PHBPU Pharbitis purpurea • POLCO Polygonum convolvulus SETVI Setaria viridis • STEME Stellaria media VERPE Veronica persica • VIOTR Viola tricolor 2. Post-Emergence Herbicidal Action Against Harmful Plants Seeds of monocotyledonous and dicotyledonous weed and crop plants are laid out in sandy loam soil in wood-fiber pots, covered with soil and cultivated in a greenhouse under good growth conditions. 2 to 3 weeks after sowing, the test plants are treated at the one-leaf stage. The compounds of the invention, formulated in the form of wettable powders (WP) or as emulsion concentrates (EC), are then sprayed onto the green parts of the plants in the form of an aqueous suspension or emulsion at a water application rate equivalent to 600 to 800 l/ha, with addition of 0.2% wetting agent. After the test plants have been left to stand in the greenhouse under optimal growth conditions for about 3 weeks, the action of the preparations is assessed visually in comparison to untreated controls (herbicidal action in percent (%): 100% activity=the plants have died, 0% activity=like control plants). […] The tables below illustrate, in an illustrative manner, the post-emergence herbicidal action of the compounds of the invention, the herbicidal activity being stated in percent.

[9] = tested on: LOLRI Lolium rigidum; assay: Pre-emergence herbicidal action against harmful plants; conditions: scored visually after 3 weeks vs untreated controls
From the text: as §1

[10] = tested on: POLCO Polygonum convolvulus; assay: as above; conditions: scored visually after 3 weeks vs untreated controls
From the text: as §1

[11] = tested on: ECHCG Echinochloa crus-galli; assay: Post-emergence herbicidal action against harmful plants; conditions: 20 g/ha, one-leaf stage, assessed visually after about 3 weeks vs untreated controls
From the text: as §2

[12] = tested on: PHBPU Pharbitis purpurea; assay: as above; conditions: one-leaf stage, assessed visually after about 3 weeks vs untreated controls
From the text: as §2

[13] = tested on: ECHCG Echinochloa crus-galli; assay: Pre-emergence herbicidal action against harmful plants; conditions: scored visually after 3 weeks vs untreated controls
From the text: as §1

[14] = tested on: DIGSA Digitaria sanguinalis; assay: Post-emergence herbicidal action against harmful plants; conditions: one-leaf stage, assessed visually after about 3 weeks vs untreated controls
From the text: as §2

SMILES | Pre-emergence action at 80 g/ha against ABUTH in % [1] | Pre-emergence action at 80 g/ha against ALOMY in % [2] | Pre-emergence action at 20 g/ha against AMARE in % [3] | Pre-emergence action at 80 g/ha against AMARE in % [3] | Pre-emergence action at 20 g/ha against DIGSA in % [4] | Pre-emergence action at 80 g/ha against DIGSA in % [4] | Pre-emergence action at 80 g/ha against MATIN in % [5] | Pre-emergence action at 80 g/ha against PHBPU in % [6] | Pre-emergence action at 80 g/ha against SETVI in % [7] | Post-emergence action at 5 g/ha against AMARE in % [8] | Post-emergence action at 20 g/ha against AMARE in % [8] | Pre-emergence action at 80 g/ha against LOLRI in % [9] | Pre-emergence action at 20 g/ha against MATIN in % [5] | Pre-emergence action at 20 g/ha against POLCO in % [10] | Pre-emergence action at 80 g/ha against POLCO in % [10] | Post-emergence action at 20 g/ha against ECHCG in % [11] | Post-emergence action at 20 g/ha against PHBPU in % [12] | Pre-emergence action at 80 g/ha against ECHCG in % [13] | also measured
Cc1c(C(=O)Nc2nnnn2C)c(F)cc(C(F)(F)F)c1C(=O)NCC(F)F [Example 1-385, N^1-(2,2-difluoroethyl)-4-fluoro-2-methyl-N^3-(1-methyl-1H-tetrazol-5-yl)-6-(trifluoromethyl)isophthalamide] | 80% | 90% | 90% | 100% | 80% | 100% | 90% | 80% | 90% | 90% | 90% | – | – | – | – | – | – | – | –
CCNC(=O)c1c(C(F)(F)F)cc(OC)c(C(=O)Nc2nnnn2C)c1Cl [Example 1-388] | – | – | – | – | – | – | – | – | – | – | 80% | – | – | – | – | – | – | – | –
CCn1nnnc1NC(=O)c1c(F)cc(C(F)(F)F)c(C(=O)NC)c1C [Example 2-92] | 80% | – | 100% | 100% | 80% | 100% | 90% | 80% | – | 90% | 90% | 90% | 90% | 80% | 90% | 80% | 80% | – | –
CCN(C)C(=O)c1c(C(F)(F)F)cc(F)c(C(=O)Nc2nnnn2C)c1C [Example 1-96] | 100% | 80% | – | 100% | – | 100% | 100% | – | 100% | 80% | 90% | – | 80% | – | – | 80% | – | 80% | Post-emergence action at 20 g/ha against DIGSA in % [14]: 90%
CCNC(=O)c1c(C(F)(F)F)cc(F)c(C(=O)Nc2nnnn2C)c1C [Example 1-93] | 100% | 80% | 100% | 100% | 80% | 100% | 90% | 90% | 80% | 90% | 90% | 80% | – | – | 80% | – | 90% | 90% | Pre-emergence action at 20 g/ha against ABUTH in % [1]: 100%; Post-emergence action at 5 g/ha against PHBPU in % ([12]; 5 g/ha): 80%
CCn1nnnc1NC(=O)c1c(F)cc(C(F)(F)F)c(C(=O)N(C)C)c1C [Example 2-95, N′-(1-ethyl-1H-tetrazol-5-yl)-4-fluoro-N,N,2-trimethyl-6-(trifluoromethyl)isophthalamide] | 100% | 90% | – | 100% | 90% | 100% | 90% | – | 90% | – | – | 80% | – | 80% | 100% | – | 80% | 80% | –
CCn1nnnc1NC(=O)c1c(F)cc(C(F)(F)F)c(C(=O)NCC2CC2)c1C [Example 2-384] | 100% | 80% | 100% | 100% | 80% | 100% | 100% | 80% | 80% | 90% | 90% | – | – | 90% | 100% | 80% | – | 80% | Pre-emergence action at 20 g/ha against ABUTH in % [1]: 90%
CCNC(=O)c1c(C(F)(F)F)cc(F)c(C(=O)Nc2nnnn2CC)c1C [Example 2-93, N^1-ethyl-N^3-(1-ethyl-1H-tetrazol-5-yl)-4-fluoro-2-methyl-6-(trifluoromethyl)isophthalamide] | 100% | 90% | 100% | 100% | – | 100% | 90% | 90% | 80% | 80% | 90% | – | 80% | – | – | – | 90% | 80% | Pre-emergence action at 20 g/ha against PHBPU in % ([6]; 20 g/ha): 80%
CCn1nnnc1NC(=O)c1c(F)cc(C(F)(F)F)c(C(=O)NCC#N)c1C [Example 2-386] | – | – | – | 100% | – | – | 80% | – | – | – | – | – | – | – | 80% | – | – | – | –
Cc1c(C(=O)Nc2nnnn2C)c(F)cc(C(F)(F)F)c1C(=O)N(C)C [Example 1-95] | – | 90% | 90% | 100% | 80% | 90% | 90% | – | 100% | – | 90% | – | – | – | 80% | – | – | – | Pre-emergence action at 20 g/ha against SETVI in % ([7]; 20 g/ha): 100%
